Results published in patent publication US6706709B2, “Indolinone derivatives as protein kinase/phosphatase inhibitors” (Sugen, Inc., priority 2000, dated 2004).

Experiments:
[1] = target: GST-Flk1 (UniProt P35918); assay: GST-FLK-1 bioassay (bio flkGST); format: biochemical
Experimental: This assay analyzes the tyrosine kinase activity of GST-Flk1 on poly glu tyr peptides.
2. poly glu tyr 4:1, lyophilizate (Sigma Catalog # P0275). Prepare 1 mg/mL poly glu tyr in sterile PBS and store in 1 ml aliquots at −20° C.
3. Preparation of poly glu tyr (pEY) coated assay plates: Coat 2 μg/well of poly glu tyr (pEY) in 100 μL PBS at room temperature for 2 hours or at +4° C. overnight. Cover plates well to prevent evaporation.
4. PBS Buffer: To make 1 liter of a 1× working solution, mix […], 1.15 g NA2HPO4, 0.2 g KCl and 8 g NaCl in approx. 900 mL dH2O. When all reagents have dissolved, adjust the pH to 7.2 with HCl. Bring total volume to 1L with dH2O.
5. PBS-Tw Buffer: To 1L of PBS Buffer, add […] Tween-20. Stir until dissolved.
6. TBB-Blocking Buffer: To make one liter of a 1× working solution, mix 1.21 g TRIS, 8.77 g NaCl, 1 mL TWEEN-20 in approximately 900 mL dH2O. Adjust pH to 7.2 with HCl. Add 10 g BSA, stir to dissolve. Bring total volume to 1 L with dH2O. Filter to remove particulate matter.
7. 1% BSA in PBS: To make a 1× working solution, add 10 g BSA to approx. 990 mL PBS buffer, stir to dissolve. Adjust total volume to 1 L with PBS buffer, filter to remove particulate matter.
9. GST-Flk1cd purified from sf9 recombinant baculovirus transformation.
13. Kinase Dilution Buffer (KDB): Mix 10 mL Hepes (pH 7.5), 1 mL of 5 M NaCl, 40 μL of 100 mM NaVO4 and 0.4 mL of 5% BSA in dH2O with 88.56 mL of dH2O.
14. NUNC-96-well V bottom polypropylene plates Applied Scientific Catalog # AS-72092
15. EDTA: Mix 14.12 g ethylenediaminetetraacetic acid (EDTA) to approx. 70 mL dH2O. Add 10N NaOH until EDTA dissolves. Adjust pH to 8.0. Adjust total volume to 100 mL with dH2O.
16. 1° Antibody Dilution Buffer: Mix 10 mL of 5% BSA in PBS buffer with 89.5 mL TBSTw.
17. Anti-phosphotyrosine monoclonal conjugated to horseradish peroxidase (PY99 HRP, Santa Cruz Biotech).
18. 2,2′-Azino-bis(3-ethylbenzthiazoline-6-sulfonic acid (ABTS, Moss, Cat. No. ABST).
1. Coat Corning 96 well ELISA plates with 2 μg of polyEY peptide in sterile PBS as described in step 3 of Materials and Reagents.
2. Remove unbound liquid from wells by inverting plate. Wash once with TBSTw. Pat the plate on a paper towel to remove excess liquid.
3. Add 100 μL of 1% BSA in PBS to each well. Incubate, with shaking, for 1 hr. at room temperature.
5. Soak wells with 50 mM Hepes pH7.5 (150 μL/well).
6. Dilute test compound with dH2O/4% DMSO to 4 times the desired final assay concentration in 96-well polypropylene plates.
7. Add 25 μL diluted test compound to ELISA plate.
8. Add 25 μL of 40 mM MnCl2 with 4×ATP (2 μM) to all wells.
9. Add 25 μL 0.5 M EDTA to negative control wells.
10. Dilute GST-Flk1 0.005 μg (5 ng)/well in KDB. For 50 ml KDB add 100 μL of 0.050 mg/mL GST-Flk1 enzyme.
11. Add 50 μL of diluted enzyme to each well.
12. Incubate, with shaking, for 15 minutes at room temperature.
13. Stop reaction by adding 50 μL of 250 mM EDTA (pH 8.0).
14. Wash 3× with TBSTw and pat plate on paper towel to remove excess liquid.
15. Add 100 μL per well anti-phosphotyrosine HRP conjugate, 1:5,000 dilution in antibody dilution buffer. Incubate, with shaking for 90 min. at room temperature.
16. Wash as described above in step 14.
17. Add 100 μL of room temperature ABTS solution to each well.
18. Incubate, with shaking, for 10 to 15 minutes. Remove any bubbles.
19. Stop reaction by adding 20 μL of 10% SDS.
20. Read assay on Dynatech MR7000 ELISA reader: test filter at 410 nM; reference filter at 630 nM.

[2] = target: T1, EGF Receptor (Homo sapiens, UniProt P00533); assay: bio EGF (EGF Receptor ELISA); format: biochemical
T1 construct: expressed in transfected cells; host or cells: NIH 3T3/C7 (mouse fibroblasts engineered to express human EGF-R)
T1 sequence (P00533 25-1210): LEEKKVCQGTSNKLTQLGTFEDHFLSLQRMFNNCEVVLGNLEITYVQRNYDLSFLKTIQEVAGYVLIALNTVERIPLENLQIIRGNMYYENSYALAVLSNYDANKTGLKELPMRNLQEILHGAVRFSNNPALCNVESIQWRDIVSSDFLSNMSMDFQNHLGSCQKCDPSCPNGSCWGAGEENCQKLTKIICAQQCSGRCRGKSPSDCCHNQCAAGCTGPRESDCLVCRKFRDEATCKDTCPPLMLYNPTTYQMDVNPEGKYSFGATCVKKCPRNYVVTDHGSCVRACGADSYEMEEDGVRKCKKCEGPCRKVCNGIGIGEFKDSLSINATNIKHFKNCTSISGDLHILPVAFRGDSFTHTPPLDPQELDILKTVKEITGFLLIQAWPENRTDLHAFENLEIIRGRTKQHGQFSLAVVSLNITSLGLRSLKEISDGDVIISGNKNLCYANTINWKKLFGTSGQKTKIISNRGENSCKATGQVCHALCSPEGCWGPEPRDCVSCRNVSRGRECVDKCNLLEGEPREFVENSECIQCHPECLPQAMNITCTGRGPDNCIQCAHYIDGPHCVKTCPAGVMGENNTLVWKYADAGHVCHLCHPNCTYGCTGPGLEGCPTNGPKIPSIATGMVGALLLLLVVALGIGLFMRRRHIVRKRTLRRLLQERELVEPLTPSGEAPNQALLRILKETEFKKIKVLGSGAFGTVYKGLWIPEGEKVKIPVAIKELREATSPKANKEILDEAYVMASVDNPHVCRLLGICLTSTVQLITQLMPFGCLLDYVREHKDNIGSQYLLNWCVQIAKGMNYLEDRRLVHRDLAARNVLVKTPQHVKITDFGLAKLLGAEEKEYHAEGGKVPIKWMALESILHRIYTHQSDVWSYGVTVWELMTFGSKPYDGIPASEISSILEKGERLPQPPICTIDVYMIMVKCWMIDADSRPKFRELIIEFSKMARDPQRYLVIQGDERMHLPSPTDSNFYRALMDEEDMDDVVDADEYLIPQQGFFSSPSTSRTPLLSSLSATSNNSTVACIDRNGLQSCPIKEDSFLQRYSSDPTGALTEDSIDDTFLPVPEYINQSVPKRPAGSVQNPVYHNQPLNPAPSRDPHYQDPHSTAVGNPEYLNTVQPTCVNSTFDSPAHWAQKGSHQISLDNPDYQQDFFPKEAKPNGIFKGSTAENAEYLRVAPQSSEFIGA
Experimental: EGF Receptor kinase activity in cells genetically engineered to express human EGF-R was measured as described below:
The following materials and reagents were used:
b. 05-101 (UBI) (a monoclonal antibody recognizing an EGFR extracellular domain).
c. Anti-phosphotyrosine antibody (anti-Ptyr) (polyclonal).
d. Detection antibody: Goat anti-rabbit lgG horse radish peroxidase conjugate, TAGO, Inc., Burlingame, Calif.
Keep solution in dark at 4° C. until used.
The following protocol was used:
1. […] Coated plates are good for up to 10 days when stored at 4° C.
2. On day of use, remove coating buffer and replace with blocking buffer (5% Carnation Instant Non-Fat Dry Milk in PBS). Incubate the plate, shaking, at room temperature (about 23° C. to 25° C.) for 30 minutes. Just prior to use, remove blocking buffer and wash plate 4 times with TBST buffer.
2. Choose dishes having 80-90% confluence for the experiment. Trypsinize cells and stop reaction by adding 10% CS DMEM medium. Suspend cells in DMEM medium (10% CS DMEM medium) and centrifuge once at 1000 rpm at room temperature for 5 minutes.
3. Resuspend cells in seeding medium (DMEM, 0.5% bovine serum), and count the cells using trypan blue. Viability above 90% is acceptable. Seed cells in DMEM medium (0.5% bovine serum) at a density of 10,000 cells per well, 100 μL per well, in a 96 well microtiter plate. Incubate seeded cells in 5% CO2 at 37° C. for about 40 hours.
1. Check seeded cells for contamination using an inverted microscope. Dilute drug stock (10 mg/ml in DMSO) 1:10 in DMEM medium, then transfer 5 μL to a test well for a final drug dilution of 1:200 and a final DMSO concentration of 1%. Control wells receive DMSO alone. Incubate in 5% CO2 at 37° C. for one hour.
2. Prepare EGF ligand: dilute stock EGF in DMEM so that upon transfer of 10 μL dilute EGF (1:12 dilution), 25 nM final concentration is attained.
3. Prepare fresh 10 ml HNTG* sufficient for 100 μL per well wherein HNTG* comprises: HNTG stock (2.0 mL), milli-Q H2O (7.3 mL), EDTA, 100 mM, pH 7.0 (0.5 mL), Na3VO4 0.5 M (0.1 mL) and Na4(P2O7), 0.2 M (0.1 mL).
5. After two hours incubation with drug, add prepared EGF ligand to cells, 10 μL per well, to yield a final concentration of 25 nM. Control wells receive DMEM alone. Incubate, shaking, at room temperature, for 5 minutes.
6. Remove drug, EGF, and DMEM. Wash cells twice with PBS. Transfer HNTG* to cells, 100 μL per well. Place on ice for 5 minutes. Meanwhile, remove blocking buffer from other ELISA plate and wash with TBST as described above.
7. With a pipette tip securely fitted to a micropipettor, scrape cells from plate and homogenize cell material by repeatedly aspirating and dispensing the HNTG* lysis buffer. Transfer lysate to a coated, blocked, and washed ELISA plate. Incubate shaking at room temperature for one hour.
8. Remove lysate and wash 4 times with TBST. Transfer freshly diluted anti-Ptyr antibody to ELISA plate at 100 μL per well. Incubate shaking at room temperature for 30 minutes in the presence of the anti-Ptyr antiserum (1:3000 dilution in TBST).
9. Remove the anti-Ptyr antibody and wash 4 times with TBST. Transfer the freshly diluted TAGO 30 anti-rabbit IgG antibody to the ELISA plate at 100 μL per well. Incubate shaking at room temperature for 30 minutes (anti-rabbit IgG antibody: 1:3000 dilution in TBST).
10. Remove detection antibody and wash 4 times with TBST. Transfer freshly prepared ABTS/H2O2 solution to ELISA plate, 100 μL per well. Incubate at room temperature for 20 minutes. ABTS/H2O2 solution: 1.2 μL 30% H2O2in 10 mL ABTS stock.
11. Stop reaction by adding 50 μL 5N H2SO4 (optional), and determine O.D. at 410 nm.
12. The maximal phosphotyrosine signal is determined by subtracting the value of the negative controls from the positive controls. The percent inhibition of phosphotyrosine content for extract-containing wells is then calculated, after subtraction of the negative controls.

| SMILES | IC50 [1] [µM] | IC50 [2] [µM] |
| --- | --- | --- |
| O=C1Nc2ccc(S(=O)(=O)N3CCc4ccccc4C3)cc2C1=Cc1cc2cc(OCCN3CCCC3)ccc2[nH]1 [IN-051, 5-(3,4-dihydro-1H-isoquinoline-2-sulfonyl)-3-[5-(2-pyrrolidin-1-yl-ethoxy)-1H-indol-2-ylmethylene]-1,3-dihydro-indol-2-one] | 0.37 | 3.52 |
| O=C1Nc2ccc(S(=O)(=O)Nc3cccnc3)cc2C1=Cc1cc2cc(OCCN3CCOCC3)ccc2[nH]1 [IN-057, 3-[5-(2-morpholin-4-yl-ethoxy)-1H-indol-2-ylmethylene]-2-oxo-2,3-dihydro-1H-indole-5-sulfonic acid pyridin-3-ylamide] | > 20 | > 20 |
| COc1cccc(-c2ccc3c(c2)NC(=O)C3=Cc2cc3cc(OCCN4CCCC4)ccc3[nH]2)c1 [IN-027, 6-(3-methoxy-phenyl)-3-[5-(2-pyrrolidin-1-yl-ethoxy)-1H-indol-2-ylmethylene]-1,3-dihydro-indol-2-one] | 2.01 | > 20 |
| NS(=O)(=O)c1ccc2c(c1)C(=Cc1ccc3[nH]ccc3c1)C(=O)N2 [IN-067, 3-(1H-indol-5-ylmethylene)-2-oxo-2,3-dihydro-1H-indole-5-sulfonic acid amide] | 3.99 | > 100 |
| CCN(CC)CCOc1ccc2[nH]c(C=C3C(=O)Nc4ccc(Br)cc43)cc2c1 [IN-017, 5-bromo-3-[5-(2-diethylamino-ethoxy)-1H-indol-2-ylmethylene]-1,3-dihydro-indol-2-one] | 0.01 | 4.67 |
| O=C1Nc2ccc(Br)cc2C1=Cc1cc2cc(OCCN3CCCC3)ccc2[nH]1 [IN-014, 5-bromo-3-[5-(2-pyrrolidin-1-yl-ethoxy)-1H-indol-2-ylmethylene]-1,3-dihydro-indol-2-one] | 0.003 | 43.5 |
| NS(=O)(=O)c1ccc2c(c1)C(=Cc1cc3cc(OCCN4CCOCC4)ccc3[nH]1)C(=O)N2 [IN-040, 3-[5-(2-morpholin-4-yl-ethoxy)-1H-indol-2-ylmethylene]-2-oxo-2,3-dihydro-1H-indole-5-sulfonic acid amide] | 0.21 | > 100 |
| COc1ccccc1-c1ccc2c(c1)NC(=O)C2=Cc1cc2cc(OCCN3CCCC3)ccc2[nH]1 [IN-028, 6-(2-methoxy-phenyl)-3-[5-(2-pyrrolidin-1-yl-ethoxy)-1H-indol-2-ylmethylene]-1,3-dihydro-indol-2-one] | 0.66 | 6.06 |
| CCN(CC)CCCc1ccc2[nH]c(C=C3C(=O)Nc4cc(-c5ccccc5)ccc43)cc2c1 [IN-003, 3-[5-(3-diethylamino-propyl)-1H-indol-2-ylmethylene]-6-phenyl-1,3-dihydro-indol-2-one] | 1.56 | 61.3 |
| CNS(=O)(=O)c1ccc2c(c1)C(=Cc1cc3cc(OCCN4CCCC4)ccc3[nH]1)C(=O)N2 [IN-041, 2-oxo-3-[5-(2-pyrrolidin-1-yl-ethoxy)-1H-indol-2-ylmethylene]-2,3-dihydro-1H-indole-5-sulfonic acid methylamide] | 0.21 | 8.43 |
| COc1ccc(-c2ccc3c(c2)NC(=O)C3=Cc2cc3cc(OCCN4CCCC4)ccc3[nH]2)cc1 [IN-026, 6-(4-methoxy-phenyl)-3-[5-(2-pyrrolidin-1-yl-ethoxy)-1H-indol-2-ylmethylene]-1,3-dihydro-indol-2-one] | 0.76 | > 20 |
| CN(C)CCOc1ccc2[nH]c(C=C3C(=O)Nc4ccc(Br)cc43)cc2c1 [IN-011, 5-bromo-3-[5-(2-dimethylamino-ethoxy)-1H-indol-2-ylmethylene]-1,3-dihydro-indol-2-one] | 0.52 | 1.36 |
| O=C1Nc2ccc(S(=O)(=O)N3CCc4cc(Br)ccc43)cc2C1=Cc1cc2cc(OCCN3CCOCC3)ccc2[nH]1 [IN-064, 5-(5-bromo-2,3-dihydro-indole-1-sulfonyl)-3-[5-(2-morpholin-4-yl-ethoxy)-1H-indol-2-ylmethylene]-1,3-dihydro-indol-2-one] | 17.8 | > 20 |
| O=C1Nc2ccc(-c3ccccc3)cc2C1=Cc1cc2cc(OCCN3CCCC3)ccc2[nH]1 [IN-006, 5-phenyl-3-[5-(2-pyrrolidin-1-yl-ethoxy)-1H-indol-2-ylmethylene]-1,3-dihydro-indol-2-one] | 0.16 | 4.69 |
